{"source": "paper PMC10144514", "about": "“Imageological/Structural Study regarding the Improved Pharmacokinetics by ^68Ga-Labeled PEGylated PSMA Multimer in Prostate Cancer” (Pharmaceuticals, 2023)", "key": {"human albumin": {"biological_target": "T1, human albumin (Homo sapiens, UniProt P02768)", "T1 construct": "purchased Sigma-Aldrich (Shanghai, China) or Shanghai yuanye Bio-Technology (general reagents statement; not tied to albumin)", "T1 sequence (P02768 25-609)": "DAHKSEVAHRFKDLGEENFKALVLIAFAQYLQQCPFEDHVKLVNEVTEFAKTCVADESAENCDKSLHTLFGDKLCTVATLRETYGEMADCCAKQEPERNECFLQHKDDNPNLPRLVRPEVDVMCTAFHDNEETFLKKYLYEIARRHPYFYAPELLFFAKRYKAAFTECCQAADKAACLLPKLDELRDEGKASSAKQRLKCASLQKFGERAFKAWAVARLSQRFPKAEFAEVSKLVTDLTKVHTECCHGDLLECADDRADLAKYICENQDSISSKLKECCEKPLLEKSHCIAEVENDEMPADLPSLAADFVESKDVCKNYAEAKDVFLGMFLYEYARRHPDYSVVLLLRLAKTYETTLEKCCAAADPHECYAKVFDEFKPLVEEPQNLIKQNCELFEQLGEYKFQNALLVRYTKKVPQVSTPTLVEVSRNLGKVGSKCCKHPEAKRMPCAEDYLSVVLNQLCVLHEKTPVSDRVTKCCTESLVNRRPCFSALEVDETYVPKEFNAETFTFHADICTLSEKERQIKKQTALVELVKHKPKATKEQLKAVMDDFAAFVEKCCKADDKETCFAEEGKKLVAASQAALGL", "assay": "In vitro determination of albumin binding (ultrafiltration)", "type": "in vitro ADME", "settings": "human serum albumin 20 mg/mL, 37 °C, ^68Ga-labeled", "method": "The albumin-binding rate of each ligand was measured by the γ-counter. ^68Ga-labeled PSMA ligand (≈50 μCi) was added into the human albumin solution (20 mg/mL). The mixture was incubated in a water bath (37 °C) for 30 min and 120 min, followed by ultrafiltration centrifugation for 5 min (10 kD, 10,000 rpm). The compound activities of the uncombined albumin or those retained on the filter membrane were measured by the γ counter, according to which the percentage of serum albumin binding activity (retained on the filter membrane) to total activity was calculated.\nThe calculation was based on the following equation: (counting of albumin retained on membrane − background counting)/(counting of albumin retained on membrane + counting of filtered liquid − 2* background counting) × 100%, and the average of three sets of data was taken as the final result."}, "PC-3 PIP tumor [1]": {"test_system": "PC-3 PIP tumor", "assay": "Biodistribution in PC-3 PIP tumor-bearing mice", "type": "in vivo", "settings": "2 h p.i.", "method": "(§1) PC-3 PIP cells at the logarithmic phase were collected after trypsinization and re-suspended to 5 × 10^7/mL with serum-free medium after removing the supernatant. Mice (6 weeks) were subcutaneously injected with 200 μL of cell suspension, and utilized for small animal PET/CT imaging, SPECT/CT imaging, and biodistribution analysis when tumor volume was ≧100 mm^3. All animal experiments were conducted with the approval of The Southwest Medical University Animal Ethics Committee.\nPC-3 PIP tumor-bearing mice (n > 3) were divided into four groups and respectively injected with 0.1 mL (70μCi) of [^68Ga]Ga-DOTA-(1P-PEG4), [^68Ga]Ga-DOTA-(2P-PEG0), [^68Ga]Ga-DOTA-(2P-PEG4), and [^68Ga]Ga-DOTA-(2P-PEG4)2 through the caudal vein. Mice were executed at 30 min/60 min/120 min after injection. Heart, blood, lung, liver, stomach, spleen, kidney, muscle, intestine, bone, salivary gland, and tumor were collected and detected by the γ-counter. The fitted curve was calculated on the basis of standard diluted samples of the initial dosage, and then the percentage of injected dose per gram of tissue (ID%/g) was calculated."}, "[2]": {"assay": "In vitro stability of radiotracers in FBS (radiochemical purity by HPLC)", "type": "in vitro ADME", "settings": "incubated in FBS at 37 °C for 2 h", "method": "(§2) All solvents and reagents were purchased from Sigma-Aldrich (Shanghai, China) and Shanghai yuanye Bio-Technology (Shanghai, China). DOTA-(1P-PEG4), DOTA-(2P-PEG0), DOTA(DOTA-(2P-PEG4), and (DOTA-(2P-PEG4)2 were synthesized by Bidepharm (Shanghai, China), and characterized by HPLC and mass spectrometry. Radio-HPLC analyses of the radiotracers were carried out using C18 column (5 µm, 4.6 × 250 mm, ZORBAX Eclipse Plus, Agilent, Milford, MA, USA), and analytical grade solvent by solvent A (0.1% trifluoroacetic acid (TFA) in water) and solvent B (0.1% TFA in acetonitrile). A ^68Ge/^68Ga generator was purchased from ITM Medical Isotopes (Munich, Germany). The γ count was measured by a CAPRAC-t γ counter containing a NaI crystal (CAPINTEC, Ramsey, NJ, USA). All in vitro experiments regarding PSMA and the determination of radiotracers’ stability were performed in triplicate to ensure reproducibility.\n(§3) […] was eluted from a ^68Ge/^68Ga generator with 0.05M HCl (≈200 MBq/mL). […]\n(§4) A total of four kinds of PSMA-related ligands were designed and synthesized. The radiochemical purity of these four ^68Ga/^177Lu-labeled compounds was detected by HPLC (Figure 1) and thin-layer chromatography (Figure S5). […]"}, "PC-3 PIP cells": {"test_system": "PC-3 PIP cells", "assay": "Cellular uptake and 2-PMPA blocking in PC-3 PIP cells", "type": "cell-based", "method": "Cellular experiments in this study were performed in the PC-3 PIP cell line. PC-3 PIP, a PCa cell line with stably high-expressed PSMA [28], was a gift from Professor Chen from the National University of Singapore. Cells were cultured in ATCC 1640 medium with 10% of FBS, L-glutamine, and antibiotic (37 °C, 5% CO2).\nPC-3 PIP cells were cultured in ATCC 1640 medium containing 10% FBS. When cultured to 70–80% confluency, cells were collected and seeded in a 24-well plate. After culturing overnight (37 °C, 5% CO2), the culture medium was replaced by serum-free ATCC 1640 medium (serum-starved cell culture) for 0.5 h. Then nuclide-labeled compounds were added into wells (50 µL, 1 μCi/well) with gentle shakes to ensure they were well distributed. After incubating for 30 min/60 min/120 min, cells at each time point were digested by NaOH and measured by the γ-counter to calculate the uptake rate (n ≥ 3). Cells were co-incubated with glycine (pH = 2.8) for 1 min, and then the procedure above was repeated after dissolving in 1 M NaOH (procedure for internalization). Cells were incubated with PSMA inhibitor (2-PMPA) for blocking assays for 15 min before adding the labeled ligands."}, "[3]": {"assay": "In vitro stability of radiotracers in PBS (radiochemical purity by HPLC)", "type": "physicochemical", "settings": "incubated in PBS at 37 °C for 2 h", "method": "as §2, §3, §4"}, "[4]": {"assay": "Lipophilicity determination (n-octanol/PBS partition)", "type": "physicochemical", "settings": "^68Ga-labeled ligand", "method": "Nuclide-labeled ligand (20 μL, ≈50 μCi), PBS (480 μL), and saturated n-octanol (500 μL) were added in a 1 mL EP tube, followed by vortex. Then the mixture was centrifuged at a low temperature (−5 °C) for 10 min until the mixture was separated into the upper and the lower layers. Liquids in the two phases were transferred into EP tubes and measured by the γ-counter. The calculation of the LogP value was based on the following equation: LogP = Lg [(counting of the organic phase − background counting)/(counting of the aqueous phase − background counting)]"}, "PC-3 PIP tumor [5]": {"test_system": "PC-3 PIP tumor", "assay": "Micro animal PET/CT and SPECT/CT imaging of PC-3 PIP tumor-bearing mice", "type": "in vivo", "method": "as §1, with “Committee. Tumor-bearing mice (n = 3) were intravenously injected with 0.1 mL (80μCi) of freshly prepared ^68Ga/^177Lu-labeled PSMA ligands. PET/CT imaging was performed at 0.5/1/2/5 h after injection, and SPECT/CT imaging was performed at 6/24/48 h after injection. The acquired PET/CT and SPECT/CT data were re-constructed by OSEM (ordered subsets expectation maximization).” for “Committee.”"}, "PSMA (PC-3 PIP cells)": {"biological_target": "T2, PSMA (PC-3 PIP cells) (Homo sapiens, UniProt Q04609)", "T2 construct": "expressed in transfected cells; host or cells: PC-3 PIP cells (PC-3 stably expressing PSMA; gift from Professor Chen, National University of Singapore)", "T2 sequence (Q04609 whole entry)": "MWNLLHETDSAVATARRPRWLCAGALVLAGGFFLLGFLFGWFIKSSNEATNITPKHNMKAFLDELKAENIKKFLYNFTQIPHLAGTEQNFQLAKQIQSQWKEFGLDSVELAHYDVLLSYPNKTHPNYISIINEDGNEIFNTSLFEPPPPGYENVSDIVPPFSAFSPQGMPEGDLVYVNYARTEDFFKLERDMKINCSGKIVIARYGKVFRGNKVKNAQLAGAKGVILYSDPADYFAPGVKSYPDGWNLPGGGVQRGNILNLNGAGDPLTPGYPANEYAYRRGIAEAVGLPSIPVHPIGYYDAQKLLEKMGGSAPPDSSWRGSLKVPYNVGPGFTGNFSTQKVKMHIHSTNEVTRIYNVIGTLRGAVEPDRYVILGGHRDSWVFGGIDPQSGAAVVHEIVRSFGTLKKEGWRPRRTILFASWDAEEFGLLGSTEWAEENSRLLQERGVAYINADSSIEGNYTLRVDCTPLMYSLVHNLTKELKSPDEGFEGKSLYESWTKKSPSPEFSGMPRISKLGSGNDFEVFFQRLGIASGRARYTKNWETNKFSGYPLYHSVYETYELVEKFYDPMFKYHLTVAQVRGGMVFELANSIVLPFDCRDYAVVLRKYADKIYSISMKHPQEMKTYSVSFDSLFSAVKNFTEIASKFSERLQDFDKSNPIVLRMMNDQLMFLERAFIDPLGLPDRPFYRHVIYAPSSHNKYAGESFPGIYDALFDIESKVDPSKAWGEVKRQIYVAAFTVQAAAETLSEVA", "assay": "Competitive binding IC50 against [^68Ga]Ga-PSMA-11 in PC-3 PIP cells", "settings": "competition with [^68Ga]Ga-PSMA-11, 1 h", "method": "PC-3 PIP cells were seeded in 96-well plates in triplicate and cultured to a density of 5* × 10^5 cells per well. [^68Ga]Ga-PSMA-11 was added into wells after serum-starved cell culture (1 μCi/well, ≈171 nmol/L), after which different PBS-diluted competitive ligands were added in wells and cultured for another hour. Then cells were washed with cold PBS twice removing the supernatant. Cells were collected and transferred to test tubes for counting by the γ-counter. IC50 values were analyzed and confirmed by nonlinear regression on GraphPad Prism Software."}}, "data": [{"smiles": "O=C(O)CC[C@H](NC(=O)N[C@@H](CCCCNC(=O)[C@@H](CCC(=O)NCCCC[C@@H](NC(=O)N[C@H](CCC(=O)O)C(=O)O)C(=O)O)NC(=O)CN1CCN(CC(=O)O)CCN(CC(=O)O)CCN(CC(=O)O)CC1)C(=O)O)C(=O)O", "note": "[[^68Ga]Ga-DOTA-(2P-PEG0), metal not drawn]", "values": [{"measurement": "albumin-binding rate (0.5 h)", "setting": "human albumin; 0.5 h", "result": 54.84, "unit": "%"}, {"measurement": "albumin-binding rate (2 h)", "setting": "human albumin; 2 h", "result": 54.29, "unit": "%"}, {"measurement": "2 h blood uptake value", "setting": "PC-3 PIP tumor [1]", "result": "2.78 ± 1.80", "unit": "ID%/g"}, {"measurement": "radiochemical purity (FBS) at 2 h", "setting": "[2]", "result": 95.21, "unit": "%"}, {"measurement": "uptake rate after co-incubation with PSMA inhibitor 2-PMPA", "setting": "PC-3 PIP cells; PC-3 PIP cells blocked by 2-PMPA, uptake at one hour (Figure 3C)", "result": "1.00 ± 0.16", "unit": "%"}, {"measurement": "2 h cellular uptake rate", "setting": "PC-3 PIP cells; PC-3 PIP cells, 2 h, ^68Ga-labeled", "result": "8.39 ± 3.65", "unit": "%"}, {"measurement": "radiochemical purity (PBS) at 2 h", "setting": "[3]", "result": 95.78, "unit": "%"}, {"measurement": "logP", "setting": "[4]", "result": -2.84}, {"measurement": "tumor uptake on PET/CT imaging", "setting": "PC-3 PIP tumor [5]; ^68Ga-labeled, PET/CT at 0.5/1/2/5 h after injection", "result": "began to decline at 2 h after injection"}, {"measurement": "IC50", "setting": "PSMA (PC-3 PIP cells)", "result": 455, "unit": "nM"}]}, {"smiles": "O=C(O)CC[C@H](NC(=O)N[C@@H](CCCCNC(=O)[C@H](Cc1ccc2ccccc2c1)NC(=O)[C@H]1CC[C@H](CNC(=O)CN2CCN(CC(=O)O)CCN(CC(=O)O)CCN(CC(=O)O)CC2)CC1)C(=O)O)C(=O)O", "note": "[[^177Lu]Lu-PSMA-617, metal not drawn, reference compound]", "values": [{"measurement": "kidney uptake on SPECT/CT imaging at 6 h", "setting": "PC-3 PIP tumor [5]; ^177Lu-labeled, SPECT/CT, 6 h after injection", "result": "detectable kidney uptake at 6 h"}]}]}
